In patent US6593372B2, “Therapeutic uses for nitric oxide inhibitors” (Cold Spring Harbor Laboratory, priority 1996, dated 2003):
Marks after values point to notes of the source that are not given here.

Key:
[1] = test system: tadpole brain, optic tectum; test: Elvax implants with NO donor or NOS inhibitor in brain ventricle of stage 45 tadpoles, optic tectum analysis; format: in vivo; details: for BrdU-positive cells (total), change / BrdU-positive cells per 10^3 cells, change / TUNEL-positive cells (total), change / TUNEL-positive cells per 10^3 cells, change / brain volume, change / cell density, change / cell number, change: vs saline control
Description: To test the effect of exogenously supplying NO to the developing tadpole brain, pieces of the slow-release matrix Elvax impregnated either with S-nitroso-N-acetylpenicillamin (SNAP, a widely used donor or NO which releases NO upon hydrolysis), or with saline as a control were inserted into the brain ventricle of state 45 tadpoles. At 1 or 3 days after implantation the following parameters in the optic tectum were analyzed: the total number of cells (as measured by the number of DAPI-stained nuclei), the number of S phase proliferating cells (as measured by BrdU incorporation), the number of apoptotic cells (as measured by TUNEL assay), the relative numbers of BrdU- and TUNEL-positive cells per 10^3 total cells, the size of the optic tectum, and the cell density in the tectum (Table 5). […] At 3 days the effects of NO on cell proliferation are less pronounced, likely reflecting the complete hydrolysis of the NO donor and the cessation of NO release. […] An increase in programmed cell death in response to NO likely contributes to the decrease in the total number of cells in the brain.
The close proximity of proliferating cells and NOS-expressing cells in the optic tectum and data from the NO donor experiments above are consistent with the proposed antiproliferative role of NO during Xenopus brain development. To test the causative role of NO in cell cycle arrest of neuronal precursors and to determine whether production of NO is necessary for cell cycle arrest and subsequent differentiation of neuronal precursors in the developing Xenopus brain, NOS activity in the brain was inhibited by using Elavax matrix impregnated with a NOS inhibitor, either L-NAME or ETU, or with saline as a control. Pieces of impregnated matrix were inserted into the brain ventricle of stage 45 tadpoles. After 3 days of treatment the brains were examined for changes in the patterns of cell division and differentiation, cell number, and overall size and morphology.
Animals, NOS inhibitors, and NO donors. Albino Xenopus laevis tadpoles were obtained by human chorionic gonadotrophin induced matings and raised under standard conditions. At state 45^5, animals were anesthetized in 0.02% 3-aminobenzoic acid (MS-222; Sigma) and a tiny piece (100 μm^2×30 μm) of slow release Elvax plastic polymer (Dupont) was inserted into the tectal ventricle through an incision made in the overlying skin with a 30 gauge needle. Elvax was prepared with stock concentrations of the NOS inhibitors, 2-ethyl-2thiopseudourea (ETU, Sigma) or L-nitro-arginine methyl ester (L-NAME, Sigma) or the NO donor S-nitroso-acetylpenicillamnin (SNAP, Sigma) prepared as a 1:10 ratio of chemical to polymer matrix. Low molecular weight molecules, including L-NAME, are released at a constant rate over a period up to 30 days as the lyophilized Elvax matrix slowly hydrates. […] Control animals were treated with Elvax impregnated with saline (0.1 M phosphate buffer).
Histochemistry and antibodies. Immunocytochemistry with wholemount preparations and sections of the tadpole was performed as described. Monoclonal antibodies to β-II tubulin, N-CAM (developed by U. Rutishauser), and Islet-1 (developed by T. M. Jessell) were obtained from the Developmental Studies Hybridoma Bank developed under the auspices of the NICHD and maintained by the University of Iowa, Department of Biological Sciences, Iowa City, Iowa 52243. Anti-mouse antibody conjugated to fluorescein (Bochringer Manheim) was used as a secondary antibody. Specimens were visualized and photographed under fluorescence or Normarski optics on a Zeiss Axiophot. For nuclei visualization, brain sections were stained with DAPI, a fluorescent DNA stain (Molecular Probes) at 1 μM. To identify cells in S phase tadpoles were injected with 50 μg/ml 5-Bromo-deoxyuridine (BrdU) (Beckton-dickinson). After two hours survival, animals were fixed in 3.7% paraformaldehyde for 2 hours and then in 70% ethanol overnight. […]

[2] = test system: transplanted BM cells, membrane colonies; test: Hemopoietic colonies on cellulose acetate membranes in the peritoneal cavity of irradiated mice (myeloid differentiation); format: in vivo; details: 7-8 days
Description: To study the formation of cells of the myeloid lineage, cellulose acetate membranes were implanted in the peritoneal cavity of mice. After 7 days, when a layer of fibroblasts had covered the membranes, the mice were irradiated as described above. BM cells from syngeneic donors were injected (10^5 BM cells per mice) in the peritoneal cavity of the recipients. Animals received injections of NOS inhibitors as described above. Membranes with growing colonies were isolated and analyzed 7-8 days later.
The differentiation status of the colonies in the spleen was evaluated by morphological criteria, myeloperoxidase reaction, and by immunohistochemical tests for the presence of receptors to various cytokines, which are present only at specific stages of the myeloid cells' maturation. […] A much smaller fraction contained undifferentiated blasts cells (6%), and a very small fraction of colonies contained erythroid cells (1.3%). In contrast, when animals were treated with NOS inhibitors after BM transplantation, most of the colonies on the membranes (up to 85%) contained and undifferentiated blasts cells. Colonies with differentiated cells of the granulocyte lineage comprised only 15.6% of the total number of colonies, and a negligible fraction of the colonies (<0.5%) contained erythroid cells. The results were similar with two structurally unrelated NOS inhibitors, confirming the specificity of their action. Thus, prolonged treatment of recipient mice after BM transfer with NOS inhibitor, reversed the ratio of blast cells-contiaing colonies to the granulocytic colinies almost 80-fold, effectively preventing myeloid differentiation.

[3] = test system: Drosophila melanogaster larvae; test: Adult fly phenotype (leg segment hypertrophy) after injection of NOS inhibitors into third instar larvae; format: in vivo; details: adults after injection of late third instar larvae
Description: Chemicals were dissolved in Schneider's solution at concentrations of 0.1 M for L-NAME and D-NAME and 0.01M for ETU and mixed with Freund's adjuvant (Sigma) in 1:3 ratio. Amounts of 5-10 nl were microinjectd in staged late third instar using a glass needle.
To test this hypothesis, NOS activity was inhibited by injecting specific NOS inhibitors in the developing larvae at the end of the third instar, several hours before metamorphosis. Most of the larvae completed metamorphosis successfully, giving rise to adult flies within the normal time frame. The resulting adults differed from normal flies in many respects, the most dramatic being enlargements of the appendages and other structures of the fly body. The changes included a) hypertrophy of the demur, tibia and the segments of the tarsus; b) overgrowth of the tissues originating from the genital discs; in extreme cases, these cells contributed to more than one-quarter of the fly body; c) and increase of the overall surface of the wings; d) overgrowth of the cells of tergites and sternites; e) hypertrophy of the humerus; f) occasional duplications of some areas of the eye; g) occasional realformation of genital structures, legs and eyes; and h) occasional ectopic formation of misplaced body structures.
The changes were most profound in, and most often affected the legs of, the adults. […]

[4] = test system: transplanted BM cells, spleen colonies; test: Hemopoietic colonies in spleens of irradiated mice after BM transplantation and injection of NOS inhibitors (erythroid differentiation); format: in vivo; details: 9-10 days after transplantation
Description: To study the formation of cell of the erythroid lineage in the spleen of the irradiated recipient mice, the animals (females of F1 CBA×C57B1 hybrids weighing 22-24 g) were treated with 750 cGy total body irradiation within 3-4 hours before transplantation. This dosage was tested to be enough for complete suppression of hematopoiesis in the irradiated recipient animals. BM cells were flushed from the femurs of syngeneic donors and injected intravenously (10^5 BM cells per mice) in the recipients. The animals received twice a day injections of 100 mg/kg of L-NAME and D-NAME and 10 mg/kg of ETU for 7-10 days. Mice were analyzed 9-10 days after transplantation.
In contrast, when animals were treated with NOS inhibitors after BM transplantation, most of the colonies in the spleen contained undifferentiated blast cells (up to 85% of blast cells colonies and mixed blast erythroid cells colonies). Erythroid colonies comprised only 15% of the total number of colonies, and the megakaryocyte and granulocyte colonies were not detectable. The results were similar with two structurally unrelated NOS inhibitors, confirming the specificity of their action. Thus, prolonged treatment of recipient mice after BM transfer with NOS inhibitor, reversed the ratio of blast cells-containing colonies to the erythroid cells-containing colonies almost 16 fold, effectively preventing erythroid differentiation.

[5] = test system: BM cells; test: Hematopoietic markers in BM cells of irradiated mice after injection of NOS inhibitors; format: in vivo; details: 7-10 days after transplantation; for c-kit positive BM cells: control 2%; for IL-3-R positive BM cells: control 7%; for GM-CSF-R positive BM cells: control 18%; for G-CSF-R positive BM cells: control 24%
Description: To study the maturation of hematopoietic cells in the bone marrow of the irradiated recipient mice, the animals were treated as described above and the BM cells from the demurs of syngeneic donors were injected intravenously (10^5 BM cells per mice) in the recipients.
The BM cells were tested for the presence of various growth factor receptors which serve as markers of the differentiation stage and indicate the presence of stem cells and multipotent percursor cells. The BM preparations were tested for cells expressing receptors to HSF (ligand of c-kit), GM-CSF, G-CSF and IL-3.

[6] = test system: BM cells; test: TUNEL apoptosis in BM cells after prolonged treatment with NOS inhibitors; format: in vivo; details: control 8+/−3%
Description: To test whether prolonged treatment with NOS inhibitors affects the rate of programmed cell death in BM cells, the number of aproptotic cells in the preparation of BM cells was examined.

[7] = test system: tadpole brain, optic tectum; test: Elvax implants with NO donor or NOS inhibitor in brain ventricle of stage 45 tadpoles, optic tectum analysis; format: in vivo; details: 7d
[8] = test system: developing Xenopus brain; test: Plastic impregnated with NOS inhibitors in brain ventricle of stage 43 tadpoles (BrdU, TUNEL); format: in vivo, Xenopus laevis; details: stage 43 tadpoles, 3, 7 and 12 days, vs control brains
Description: After 3, 7 and 12 days, animals were examined for changes in the patterns of cell division, differentiation, survival, and morphology of the brain. […] Whether the inhibition of NOS and excessive proliferation of cells in the developing brain affects the programmed death of neurons in the tectum was tested. […] The increase in the number of TUNEL-positive cells is not due to toxicity of the inhibitors, since cells continued to incorporate BrdU very effectively. […] Alternatively, this may indicate that differentiated neurons became dependent on NO for survival, similar to the situation in fully differentiated PC12 cells (Peunova et al., 1996). Neuronal differentiation in the brain is affected

## CC(=O)N[C@H](C(=O)O)C(C)(C)SN=O (racemic) [SNAP, S-nitroso-N-acetylpenicillamine]
[1]; 1d
  BrdU-positive cells (total): 12 +/− 2
  BrdU-positive cells per 10^3 cells: 3
  TUNEL-positive cells (total): 138 +/− 12
  TUNEL-positive cells per 10^3 cells: 34
  brain volume: 66.2 +/− 6.4 mm^3 × 10^−4
  cell density: 62.6 +/− 14.1 cells per mm^3 × 10^−4
  cell number: 3983 +/− 606
  BrdU-positive cells (total), change: −96.2%
  BrdU-positive cells per 10^3 cells, change: −95.2%
  TUNEL-positive cells (total), change: −28.2%
  TUNEL-positive cells per 10^3 cells, change: −10.5%
  brain volume, change: −15.6%
  cell density, change: −2.8%
  cell number, change: −20.7%
[1]; 3d
  BrdU-positive cells (total): 316 +/− 22
  BrdU-positive cells per 10^3 cells: 63
  TUNEL-positive cells (total): 82 +/− 10
  TUNEL-positive cells per 10^3 cells: 16
  brain volume: 80.1 +/− 8.6* mm^3 × 10^−4
  cell density: 62.3 +/− 1.7** cells per mm^3 × 10^−4
  cell number: 5012 +/− 594**
  BrdU-positive cells (total), change: −34.0%
  BrdU-positive cells per 10^3 cells, change: +21.1%
  TUNEL-positive cells (total), change: −51%
  TUNEL-positive cells per 10^3 cells, change: −11.1%
  brain volume, change: −31.3%
  cell density, change: −20.8%
  cell number, change: −45.1%
[1]; Elvax stock, range of concentrations tested
  stock concentration found to be effective: 300 mM
[1]; day 1
  number of proliferating cells, of the control value: 5%

## COC(=O)[C@H](N)CCCN=C(N)N[N+](=O)[O-] [D-NAME, D-nitroarginine methyl ester]
[2]
  blast cell colonies: 6%
  erythroid colonies: 1.3%
  granulocytic colonies: 92%
[3]
  increase of diameter of certain leg segments (hypertrophy, third pair of legs): not
[4]
  blast cell and erythroid cells colonies: 13%
  erythroid colonies: > 60%
  granulocyte colonies: 4%
  megakaryocyte colonies: 7.5%
[4]; injections twice a day
  blast cell colonies: 14%
[5]
  c-kit positive BM cells: 7%
  IL-3-R positive BM cells: 12%
  GM-CSF-R positive BM cells: 16%
  G-CSF-R positive BM cells: 19%

## CCSC(=N)N [ETU, 2-ethyl-2-thiopseudourea]
[6]
  proportion of apoptotic cells (TUNEL) in BM: 8%
[1]; 7d
  BrdU-positive cells (total): 550 +/− 50
  BrdU-positive cells per 10^3 cells: 42
  TUNEL-positive cells (total): 184 +/− 7
  TUNEL-positive cells per 10^3 cells: 14
  brain volume: 122.3 +/− 4.3* mm^3 × 10^−4
  cell number: 12870 +/− 690*
  BrdU-positive cells per 10^3 cells, change: +247%
  TUNEL-positive cells (total), change: +128%
  TUNEL-positive cells per 10^3 cells, change: +40.0%
  cell number, change: +53.7%
[1]; Elvax stock 1 M L-NAME, 10 mM ETU, increased BrdU incorporation
  toxicity to the animals: without any signs of toxicity
[7]
  cell density: 105 +/− 3* cells per mm^3 × 10^−4
[7]; vs saline control
  BrdU-positive cells (total), change: +269%
  cell density, change: +25.5%
[8]
  number of cells in the S phase (BrdU labeling) in the brain: dramatic increase
[5]
  c-kit positive BM cells: 84%
  IL-3-R positive BM cells: 83%
  GM-CSF-R positive BM cells: 10%
  G-CSF-R positive BM cells: 8%
